Source: patent publication US4558068A, “Spirobenzofuranones and their use in treating peptic ulcers” (Takeda Chemical Industries, Ltd., priority 1983, dated 1985)

Columns and labels:
stress ulcer = test: Stress ulcer inhibiting effect, water immersion method (Takagi and Okabe); type: in vivo; conditions: rats, 50 mg/kg, i.p.; **: P < 0.05
Excerpt: The stress ulcer inhibiting effect of the drug was investigated in rats in accordance with the water immersion method described by K. Takagi and S. Okabe, Jap. J. Pharmacol. 18, 9, 1968.

ICR mice = test: Acute oral toxicity, single administration, 7 days observation; type: in vivo; conditions: 500 mg/kg orally once

For `O=C(O)C(O)c1ccc2c(c1)C(=O)C1(CC1)O2` (centres unmarked), the “% Inhibition (stress ulcer)” value (stress ulcer) was 56% and the “death during observation period” value (ICR mice) was “no death was found”.
